Read-outs that look alike come from different tables or passages of the source.
Key:
LoVo = assay: Cytotoxicity assay (SRB), LoVo; format: cell-based; details: LoVo cells, SRB, read-out: In Vitro Cellular Activity IC50 LOVO
How it was run: (§1)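 Growth inhibition, SRB method: 3-day continuous compound exposure for HCT-116, LoVo and MCF-7 and 6-day exposure for BT474. Absorbance at 540 nm reflects surviving cell protein relative to controls.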

HCT-116 = assay: Cytotoxicity assay (SRB), HCT-116; format: cell-based; details: HCT116 cells, SRB, read-out: In Vitro Cellular Activity IC50 HCT116
How it was run: as §1

BT474 = assay: Cytotoxicity assay (SRB), BT474; format: cell-based
How it was run: as §1

MCF-7 = assay: Cytotoxicity assay (SRB), MCF-7; format: cell-based; details: MCF-7 cells, SRB, read-out: In Vitro Cellular Activity IC50 MCF-7
How it was run: as §1

cyclin B/CDK1 enzyme = target: T1, cyclin B/CDK1 enzyme (Homo sapiens, UniProt P06493); assay: CDK1 ELISA kinase assay (phospho-Rb ser 795 detection); format: biochemical
T1 construct: purchased New England BioLabs; host or cells: Sf9 insect cells, recombinant baculovirus
How it was run: (§2)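 ELISA format: plate-bound GST-Rb, 200 μM ATP, Sf9 cyclin/CDK enzyme, 1 h at 30° C; then anti-pRb Ser795 primary overnight at 4° C, HRP secondary, TMB. IC50 after no-substrate background subtraction.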

cyclin E/CDK2 enzyme = target: T2, cyclin E/CDK2 enzyme (Homo sapiens, UniProt P24941); assay: CDK2 ELISA kinase assay (phospho-Rb ser 795 detection); format: biochemical
T2 construct: made in house; host or cells: Sf9 insect cells, recombinant baculovirus
How it was run: as §2

cyclin D1/cdk 4 enzyme = target: T3, cyclin D1/cdk 4 enzyme (Homo sapiens, UniProt P11802); assay: CDK4 ELISA kinase assay (phospho-Rb ser 795 detection); format: biochemical
T3 construct: made in house; host or cells: Sf9 insect cells, recombinant baculovirus
How it was run: as §2

[1] = Homo sapiens, LoVo, 72 h, three days
[2] = Homo sapiens, HCT-116, 72 h, three days
[3] = Homo sapiens, BT-474, 144 h, BT474 cells, SRB, 6 days; read-out: In Vitro Cellular Activity IC50 BT474
[4] = Homo sapiens, MCF7, 72 h, three days
[5] = In Vitro Enzyme Assays, read-out: CDK1 IC50
[6] = In Vitro Enzyme Assays, read-out: CDK2 IC50
[7] = In Vitro Enzyme Assays, 200 μM ATP, read-out: CDK4 IC50
[8] = Homo sapiens, LoVo, 72 h, 3 days
[9] = Homo sapiens, HCT-116, 72 h, 3 days
[10] = Homo sapiens, BT-474, 144 h, BT474 cells, 6 days, SRB; read-out: In Vitro Cellular Activity IC50 BT474
[11] = Homo sapiens, MCF7, 72 h, 3 days
[12] = In Vitro Enzyme Assay, cyclin B/CDK1, read-out: CDK1 IC50
[13] = In Vitro Enzyme Assay, cyclin E/CDK2, read-out: CDK2 IC50
[14] = In Vitro Enzyme Assay, cyclin D1/cdk 4, read-out: CDK4 IC50

T3 sequence (P11802 whole entry, species assumed): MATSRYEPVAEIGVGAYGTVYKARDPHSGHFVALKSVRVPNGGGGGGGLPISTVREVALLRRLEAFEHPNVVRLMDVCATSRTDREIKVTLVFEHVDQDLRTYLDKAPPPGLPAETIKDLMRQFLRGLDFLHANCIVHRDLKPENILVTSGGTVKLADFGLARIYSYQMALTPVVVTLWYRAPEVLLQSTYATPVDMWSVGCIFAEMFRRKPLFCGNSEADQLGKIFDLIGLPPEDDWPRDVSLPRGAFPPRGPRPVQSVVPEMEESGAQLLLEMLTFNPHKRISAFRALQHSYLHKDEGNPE
T3 sequence (P24385 whole entry partner, species assumed): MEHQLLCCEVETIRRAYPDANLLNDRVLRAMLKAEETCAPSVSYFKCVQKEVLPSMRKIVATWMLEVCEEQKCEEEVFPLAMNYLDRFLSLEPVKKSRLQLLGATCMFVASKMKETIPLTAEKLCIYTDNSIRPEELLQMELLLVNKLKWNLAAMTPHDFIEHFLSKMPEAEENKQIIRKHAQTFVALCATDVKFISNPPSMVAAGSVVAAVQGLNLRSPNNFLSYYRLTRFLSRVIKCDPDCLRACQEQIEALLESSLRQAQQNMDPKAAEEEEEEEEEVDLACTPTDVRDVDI
T1 sequence (P06493 whole entry): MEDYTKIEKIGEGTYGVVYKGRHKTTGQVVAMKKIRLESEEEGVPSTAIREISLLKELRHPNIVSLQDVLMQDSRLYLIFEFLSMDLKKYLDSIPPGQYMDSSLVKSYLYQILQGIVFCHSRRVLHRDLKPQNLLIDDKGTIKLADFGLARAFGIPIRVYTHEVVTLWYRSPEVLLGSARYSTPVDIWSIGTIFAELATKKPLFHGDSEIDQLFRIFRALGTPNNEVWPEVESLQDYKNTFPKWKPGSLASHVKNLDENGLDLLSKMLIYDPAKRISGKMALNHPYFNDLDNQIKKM
T1 sequence (P14635 whole entry partner): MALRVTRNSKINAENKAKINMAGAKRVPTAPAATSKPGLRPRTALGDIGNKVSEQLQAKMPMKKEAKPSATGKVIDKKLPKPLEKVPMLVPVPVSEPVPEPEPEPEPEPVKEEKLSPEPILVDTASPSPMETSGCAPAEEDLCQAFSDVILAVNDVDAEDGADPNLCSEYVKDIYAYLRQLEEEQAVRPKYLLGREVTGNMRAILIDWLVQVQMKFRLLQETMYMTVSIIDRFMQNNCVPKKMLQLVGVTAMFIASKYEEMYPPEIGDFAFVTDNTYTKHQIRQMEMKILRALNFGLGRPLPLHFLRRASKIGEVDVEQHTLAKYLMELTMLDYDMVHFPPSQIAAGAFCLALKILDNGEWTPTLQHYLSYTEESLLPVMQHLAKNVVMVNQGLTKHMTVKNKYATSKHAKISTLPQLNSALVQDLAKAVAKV

O=C1NC(=O)c2ccc(Br)cc2/C1=C/NCc1cc(O)c(O)c(O)c1 [Example 79]
IC50 (LoVo; [1]): 49.5 µM | IC50 (HCT-116; [2]): > 50 µM | IC50 (BT474; [3]): 37.7 µM | IC50 (MCF-7; [4]): > 50 µM | IC50 (cyclin B/CDK1 enzyme; [5]): 42.6 µM | IC50 (cyclin E/CDK2 enzyme; [6]): 2.2 µM | IC50 (cyclin D1/cdk 4 enzyme; [7]): 0.026 µM

CC(C)CC(=O)Nc1ccc(CN/C=C2\C(=O)NC(=O)c3ccccc32)cc1 [Example 593, N-(4{[(1,3-Dioxo-2,3-dihydro-1H-isoquinolin-4-ylidenemethyl)-amino]-methyl}-phenyl)-3-methyl-butyramide]
IC50 (LoVo; [8]): 35.8 µM | IC50 (HCT-116; [9]): 13.8 µM | IC50 (BT474; [10]): 26.6 µM | IC50 (MCF-7; [11]): 25.9 µM | IC50 (cyclin B/CDK1 enzyme; [12]): 44.5 µM | IC50 (cyclin E/CDK2 enzyme; [13]): > 50 µM | IC50 (cyclin D1/cdk 4 enzyme; [14]): > 50 µM

O=C1NC(=O)c2ccc(Br)cc2/C1=C/Nc1ccc(-n2ccnc2)cc1 [Example 869, (4Z)-6-Bromo-4-({[4-(1H-imidazol-1-yl)phenyl]amino}methylene)isoquinoline-1,3(2H,4H)-dione]
IC50 (LoVo; [8]): > 50 µM | IC50 (HCT-116; [9]): 5.4 µM | IC50 (BT474; [10]): > 50 µM | IC50 (MCF-7; [11]): > 50 µM | IC50 (cyclin B/CDK1 enzyme; In Vitro Enzyme Assay, read-out: CDK1 IC50): > 50 µM | IC50 (cyclin E/CDK2 enzyme; In Vitro Enzyme Assay, read-out: CDK2 IC50): 14.7 µM | IC50 (cyclin D1/cdk 4 enzyme; In Vitro Enzyme Assay, read-out: CDK4 IC50): 22.6 µM

O=C1NC(=O)c2ccccc2/C1=C/Nc1ccc(CN2CCCC2)cc1 [Example 576, 4-[(4-Pyrrolidin-1-ylmethyl-phenylamino)-methylene]-4H-isoquinoline-1,3-dione]
IC50 (LoVo; [8]): 19.1 µM | IC50 (HCT-116; [9]): 6.3 µM | IC50 (BT474; [10]): 7.4 µM | IC50 (MCF-7; [11]): 7.6 µM | IC50 (cyclin B/CDK1 enzyme; [12]): 13.8 µM | IC50 (cyclin E/CDK2 enzyme; [13]): 39.8 µM | IC50 (cyclin D1/cdk 4 enzyme; [14]): 7.5 µM

CN1CCN(CCN(C)c2ccc(NC=C3C(=O)NC(=O)c4ccc(Br)cc43)cc2)CC1 (stereo in doubt) [Example 261, (4Z)-6-Bromo-4-{[(4-{methyl[2-(4-methylpiperazin-1-yl)ethyl]amino}phenyl)amino]methylene}isoquinoline-1,3(2H,4H)-dione]
IC50 (LoVo; [1]): 10 µM | IC50 (HCT-116; [2]): 3 µM | IC50 (BT474; [3]): 10 µM | IC50 (MCF-7; [4]): 9.2 µM | IC50 (cyclin B/CDK1 enzyme; [5]): > 50 µM | IC50 (cyclin E/CDK2 enzyme; [6]): > 50 µM | IC50 (cyclin D1/cdk 4 enzyme; [7]): 2.6 µM

CC(O)C1CCCN1Cc1ccc(N/C=C2\C(=O)NC(=O)c3ccc(I)cc32)cc1 (single isomer, unassigned) [Example 374, 4-({4-[2-(1-Hydroxy-ethyl)-pyrrolidin-1-ylmethyl]-phenylamino}-methylene)-6-iodo-4H-isoquinoline-1,3-dione]
IC50 (LoVo; [1]): 3.8 µM | IC50 (HCT-116; [2]): 3.2 µM | IC50 (BT474; [3]): 0.46 µM | IC50 (MCF-7; [4]): 1 µM | IC50 (cyclin B/CDK1 enzyme; [5]): > 50 µM | IC50 (cyclin E/CDK2 enzyme; [6]): 37.1 µM | IC50 (cyclin D1/cdk 4 enzyme; [7]): 1.3 µM

CN1CCN(c2ccc(NC=C3C(=O)NCc4cc(-c5cccs5)ccc43)cc2)CC1 [Example 848, 4-{[4-(4-Methyl-piperazin-1-yl)-phenylamino]-methylene}-7-thiophen-2-yl-1,4-dihydro-2H-isoquinolin-3-one]
IC50 (LoVo; [8]): 13.3 µM | IC50 (HCT-116; [9]): 7.1 µM | IC50 (BT474; [10]): 13.8 µM | IC50 (MCF-7; [11]): 10.9 µM | IC50 (cyclin B/CDK1 enzyme; [12]): 44.4 µM | IC50 (cyclin E/CDK2 enzyme; [13]): > 50 µM | IC50 (cyclin D1/cdk 4 enzyme; [14]): > 50 µM

CN1CCN(c2ccc(N/C=C3\C(=O)NC(=O)c4ccc(-c5ccsc5)cc43)cc2)CC1 [Example 108, (4Z)-4-({[4-(4-Methylpiperazin-1-yl)phenyl]amino}methylene)-6-thien-3-ylisoquinoline-1,3(2H,4H)-dione]
IC50 (LoVo; three days): 2.2 µM | IC50 (HCT-116; three days): 1.5 µM | IC50 (BT474; BT474 cells, SRB, 6 days; read-out: In Vitro Cellular Activity IC50 BT474): 2.6 µM | IC50 (MCF-7; three days): 2.5 µM | IC50 (cyclin B/CDK1 enzyme; [5]): > 50 µM | IC50 (cyclin E/CDK2 enzyme; [6]): > 50 µM | IC50 (cyclin D1/cdk 4 enzyme; [7]): 0.12 µM

CN(C)CC(=O)Nc1ccc(CN/C=C2\C(=O)NC(=O)c3ccc(I)cc32)cc1O [Example 526, N^1-[2-Hydroxy-4-({[(Z)-(6-iodo-1,3-dioxo-2,3-dihydroisoquinolin-4(1H)-ylidene)methyl]amino}methyl)phenyl]-N^2,N^2-dimethylglycinamide]
IC50 (LoVo; [8]): 5.6 µM | IC50 (HCT-116; [9]): 2.4 µM | IC50 (BT474; [10]): 7.2 µM | IC50 (MCF-7; [11]): 3.3 µM | IC50 (cyclin B/CDK1 enzyme; [12]): 2.1 µM | IC50 (cyclin E/CDK2 enzyme; [13]): 0.5 µM | IC50 (cyclin D1/cdk 4 enzyme; [14]): 0.02 µM

Source: patent publication US7713994B2 (Wyeth LLC, priority 2005, dated 2010)
